Data reported in PMC9251361, “Effects of LPS Composition in Escherichia coli on Antibacterial Activity and Bacterial Uptake of Antisense Peptide-PNA Conjugates” (Frontiers in Microbiology, 2022).
≈ marks a conversion by molar mass, not a printed value.

How the values were obtained:
[1] = tested on: E. coli tolB, tolQ, and tolR mutants; test: MIC broth microdilution, tol mutants as a group; format: cell-based, Escherichia coli
Description: (§1) Minimum inhibitory concentration (MIC) values were determined by broth microdilution according to standard protocols adapted to peptide-based antimicrobial compounds (Goltermann and Nielsen, [2020]). Briefly, 190 μl bacterial cell culture containing ≈10^5 cfu/ml was dispensed into a 96-well plate (Thermo Scientific, Nunc Cat. No. 260896, 96F straight w/lid) along with 10 μl PNA stock solution or antibiotic. The plate was incubated in a Tecan Genios plate reader at 37°C for 18 h, and OD was measured every 20 min at 595 nm. The MIC was determined as the lowest concentration, which inhibited visible growth (OD < 0.1) in the wells. […] Experiments were performed in triplicates as a minimum.
The Pal-Tol-system, an envelope spanning complex involved in maintaining the outer membrane integrity, has previously been implicated in general antibiotic susceptibility, and thus was also investigated.

E. coli K12 MG1655 = test: microbe, parasite or virus in culture; format: cell-based, Escherichia coli; conditions: Escherichia coli; Table 4; strain MG1655; MHB, 37°C, 18 h; read-out: MIC values, Carbenicillin
Description: (§2) All strains used in this study are listed in Supplementary Table S1. E. coli strains WD101 and WD101ΔeptAΔarnD (WD101ΔΔ) were kindly provided by Professor M. Stephen Trent (University of Georgia, USA). E. coli strains DB wild type, DB L5, and DB L9 were kindly provided by Dr. Douglas Browning (University of Birmingham, UK). Single deletion strains for envelope mutants were obtained from the Keio-collection (Baba et al., [2006]). All strains were grown in non-cation adjusted Muller Hinton broth (MHB) (Sigma, Cat. No. 70192). BPP-PNA conjugates (Table 1) were obtained as described previously (Good et al., [2001]; Ghosal et al., [2013]; Hansen et al., [2016]).
as §1

[2] = tested on: E. coli BW25113 tolB mutant (Keio collection); test: MIC broth microdilution; format: cell-based; conditions: Escherichia coli, BW25113, 18 h, read-out: MIC values, Carbenicillin
Description: as §2, §1

[3] = tested on: E. coli BW25113 metL mutant (Keio collection); test: MIC broth microdilution; format: cell-based; conditions: Escherichia coli, BW25113, 18 h, read-out: MIC values, Carbenicillin
Description: as §2, §1

E. coli BW25113 = test: MIC broth microdilution; format: cell-based; conditions: Escherichia coli; Table 4; strain BW25113; MHB, 37°C, 18 h; read-out: MIC values, Carbenicillin
Description: as §2, §1

[4] = tested on: E. coli BW25113 ppiB mutant (Keio collection); test: MIC broth microdilution; format: cell-based; conditions: Escherichia coli, BW25113, 18 h, read-out: MIC values, Carbenicillin
Description: as §2, §1

[5] = tested on: E. coli BW25113 mrcB mutant (Keio collection); test: MIC broth microdilution; format: cell-based; conditions: Escherichia coli, BW25113, 18 h, read-out: MIC values, Carbenicillin
Description: as §2, §1

[6] = tested on: E. coli BW25113 tolR mutant (Keio collection); test: MIC broth microdilution; format: cell-based; conditions: Escherichia coli, BW25113, 18 h, read-out: MIC values, Carbenicillin
Description: as §2, §1

[7] = tested on: E. coli BW25113 hydN mutant (Keio collection); test: MIC broth microdilution; format: cell-based; conditions: Escherichia coli, BW25113, 18 h, read-out: MIC values, Carbenicillin
Description: as §2, §1

[8] = tested on: E. coli BW25113 tolQ mutant (Keio collection); test: MIC broth microdilution; format: cell-based; conditions: Escherichia coli, BW25113, 18 h, read-out: MIC values, Carbenicillin
Description: as §2, §1

Structure (SMILES): CC1(C)S[C@@H]2[C@H](NC(=O)C(C(=O)O)c3ccccc3)C(=O)N2[C@H]1C(=O)O (stereo partly shown) [Carbenicillin]
- fold increase in carbenicillin susceptibility [1]: circa 8 fold
- MIC (E. coli K12 MG1655): 16 µg/mL (≈ 42.3 µM)
- MIC [2]: ≤ 2 µg/mL
- MIC [3]: 16 µg/mL (≈ 42.3 µM)
- MIC (E. coli BW25113): 8 µg/mL (≈ 21.1 µM)
- MIC [4]: 16 µg/mL (≈ 42.3 µM)
- MIC [5]: 4 µg/mL (≈ 10.6 µM)
- MIC [6]: 2 to 4 µg/mL (≈ 5.29 to 10.6 µM)
- MIC [7]: 16 µg/mL (≈ 42.3 µM)
- MIC [8]: ≤ 2 µg/mL
